Like-named read-outs stand apart in the source and are kept apart here.
Key:
[1] = biological target: intracellular GCN2 (phosphorylation of the GCN2 substrate eIF2α) (Homo sapiens, UniProt Q9P2K8); assay: GCN2 cellular inhibition assay (AlphaScreen SureFire P-eIF2α Ser51, borrelidin-treated U2OS cells); type: cell-based
Procedure, shortened: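 Borrelidin at 10 μM is added to U2OS cells immediately after compound (4-fold dilution series, 40 μM top final) for 1 h at 37 °C. Phosphorylated eIF2α Ser51 in lysates is quantified by AlphaScreen and expressed as percent inhibition against borrelidin-stimulated controls.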

GCN2 kinase = GCN2 kinase (Homo sapiens, UniProt Q9P2K8); assay: GCN2 enzyme inhibition assay (Transcreener ADP2 fluorescence polarization); type: biochemical; conditions: 280 μM ATP
Chain of GCN2 kinase (Q9P2K8 whole entry): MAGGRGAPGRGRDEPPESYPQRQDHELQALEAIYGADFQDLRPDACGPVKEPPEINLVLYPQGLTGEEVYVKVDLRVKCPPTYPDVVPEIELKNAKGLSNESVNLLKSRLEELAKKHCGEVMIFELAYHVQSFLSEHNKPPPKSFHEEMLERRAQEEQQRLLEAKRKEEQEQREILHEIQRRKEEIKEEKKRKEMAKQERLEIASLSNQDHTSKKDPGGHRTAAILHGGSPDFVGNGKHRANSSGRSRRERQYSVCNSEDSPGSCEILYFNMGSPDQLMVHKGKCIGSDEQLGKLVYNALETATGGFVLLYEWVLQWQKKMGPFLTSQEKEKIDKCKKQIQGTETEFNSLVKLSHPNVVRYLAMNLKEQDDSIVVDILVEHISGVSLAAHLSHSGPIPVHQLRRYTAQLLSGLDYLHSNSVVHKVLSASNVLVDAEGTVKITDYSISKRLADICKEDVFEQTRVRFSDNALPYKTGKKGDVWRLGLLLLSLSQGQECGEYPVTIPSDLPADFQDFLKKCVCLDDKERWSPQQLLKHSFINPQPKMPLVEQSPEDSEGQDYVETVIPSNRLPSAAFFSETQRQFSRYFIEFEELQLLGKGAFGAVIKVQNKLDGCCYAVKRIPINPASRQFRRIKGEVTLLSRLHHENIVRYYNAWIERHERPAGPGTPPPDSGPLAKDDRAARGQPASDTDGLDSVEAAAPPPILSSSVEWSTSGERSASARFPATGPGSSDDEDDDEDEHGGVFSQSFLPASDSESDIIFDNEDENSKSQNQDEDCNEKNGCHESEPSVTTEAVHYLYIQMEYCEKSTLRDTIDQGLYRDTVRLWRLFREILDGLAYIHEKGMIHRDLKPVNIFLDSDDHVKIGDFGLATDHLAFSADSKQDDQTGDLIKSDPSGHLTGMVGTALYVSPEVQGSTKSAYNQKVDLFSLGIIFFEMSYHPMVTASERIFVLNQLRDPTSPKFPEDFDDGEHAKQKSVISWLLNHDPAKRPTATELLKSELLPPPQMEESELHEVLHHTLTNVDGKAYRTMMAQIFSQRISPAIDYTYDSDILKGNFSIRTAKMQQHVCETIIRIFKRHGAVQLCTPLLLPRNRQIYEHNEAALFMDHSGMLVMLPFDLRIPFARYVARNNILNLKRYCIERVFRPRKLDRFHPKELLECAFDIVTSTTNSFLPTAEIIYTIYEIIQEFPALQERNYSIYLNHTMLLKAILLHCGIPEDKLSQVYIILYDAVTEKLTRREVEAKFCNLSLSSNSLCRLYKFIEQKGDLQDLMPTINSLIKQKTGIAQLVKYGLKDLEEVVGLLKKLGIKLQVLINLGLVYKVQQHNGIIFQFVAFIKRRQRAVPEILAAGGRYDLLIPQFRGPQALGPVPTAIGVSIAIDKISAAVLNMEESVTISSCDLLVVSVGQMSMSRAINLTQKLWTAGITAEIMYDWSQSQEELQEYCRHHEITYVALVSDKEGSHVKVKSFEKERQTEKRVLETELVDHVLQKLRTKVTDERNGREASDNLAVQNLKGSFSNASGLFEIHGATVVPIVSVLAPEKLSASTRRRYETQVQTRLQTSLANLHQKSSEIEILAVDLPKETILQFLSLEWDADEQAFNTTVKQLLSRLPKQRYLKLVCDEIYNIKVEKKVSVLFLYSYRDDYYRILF
Procedure, shortened: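 Human GCN2 (4 nM) preincubated 10 min with compound (0–8 μM) and 200 μM (RS)7 peptide in Tris-HCl pH 7.5, NaCl, MgCl2, DTT. Reaction started with 280 μM ATP, run 1 h at 25 °C. ADP detected by Transcreener fluorescence polarization. IC50 and Ki(app) fitted by tight-binding algorithm.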

[2] = compounds of Formula II, biomarker assay, phosphorylated eIF2α Ser51 in borrelidin-treated U2OS cells
[3] = compounds of Formula II, 4 nM GCN2 kinase
[4] = compounds of Formula IV, biomarker assay, phosphorylated eIF2α Ser51 in borrelidin-treated U2OS cells
[5] = Enzyme activity for compounds of Formula IV, Ki(app), 25° C.

Chain of intracellular GCN2 (phosphorylation of the GCN2 substrate eIF2α) (Q9P2K8 whole entry): as above

Compound: NC(=O)CC1CN(c2cc(-c3cnc4ccc(C(F)F)nn34)ncn2)CCN1 (centres unmarked) [II-483, 2-(4-(6-(6-(Difluoromethyl)imidazo[1,2-b]pyridazin-3-yl)pyrimidin-4-yl)piperazin-2-yl)acetamide]
- IC50 [1, 2]: > 5000 nM
- Ki (GCN2 kinase; [3]): 10 to 1000 nM

Compound: OCC1CCCN(c2cc(-c3cnc4ccc(C(F)F)nn34)ccn2)C1 (centres unmarked) [II-162, (1-(4-(6-(Difluoromethyl)imidazo[1,2-b]pyridazin-3-yl)pyridin-2-yl)piperidin-3-yl)methanol]
- IC50 [1, 2]: 500 to 5000 nM
- Ki (GCN2 kinase; [3]): 10 to 1000 nM

Compound: CC(NS(C)(=O)=O)C1CN(c2ccnc(-c3cnc4cnc(C(F)F)cn34)n2)CCO1 (centres unmarked) [IV-61, N-(1-(4-(2-(6-(Difluoromethyl)imidazo[1,2-a]pyrazin-3-yl)pyrimidin-4-yl)morpholin-2-yl)ethyl)methanesulfonamide]
- IC50 [1, 4]: > 5000 nM
- Ki (GCN2 kinase; [5]): 100 to 1000 nM

Compound: CN1CCN(c2cc(-c3cnc4ccc(C(F)F)nn34)ncn2)CC12CN(S(N)(=O)=O)C2 [II-535, 8-(6-(6-(Difluoromethyl)imidazo[1,2-b]pyridazin-3-yl)pyrimidin-4-yl)-5-methyl-2,5,8-triazaspiro[3.5]nonane-2-sulfonamide]
- IC50 [1, 2]: 500 to 5000 nM
- Ki (GCN2 kinase; [3]): 10 to 1000 nM

Compound: CS(=O)(=O)N1CCN(C(=O)C2CCCN(c3cc(-c4cnc5ccc(C(F)F)nn45)ncn3)C2)CC1 (centres unmarked) [II-206, (1-(6-(6-(Difluoromethyl)imidazo[1,2-b]pyridazin-3-yl)pyrimidin-4-yl)piperidin-3-yl)(4-(methylsulfonyl)piperazin-1-yl)methanone]
- IC50 [1, 2]: > 5000 nM
- Ki (GCN2 kinase; [3]): 10 to 1000 nM

Compound: Fc1n[nH]cc1C1CCN(c2ccnc(-c3cnc4cnc(C(F)(F)F)cn34)n2)C1 (single isomer, unassigned) [IV-562, 3-(4-(3-(3-Fluoro-1H-pyrazol-4-yl)pyrrolidin-1-yl)pyrimidin-2-yl)-6-(trifluoromethyl)imidazo[1,2-a]pyrazine]
- IC50 [1, 4]: < 500 nM
- Ki (GCN2 kinase; [5]): < 10 nM

Compound: CS(=O)(=O)NCC1CN(c2cc(-c3cnc4ccc(C(F)F)nn34)ncn2)c2ccccc21 (centres unmarked) [II-11, N-((1-(6-(6-(Difluoromethyl)imidazo[1,2-b]pyridazin-3-yl)pyrimidin-4-yl)indolin-3-yl)methyl)methanesulfonamide]
- IC50 [1, 2]: > 5000 nM
- Ki (GCN2 kinase; [3]): 10 to 1000 nM

Compound: Cc1cn2c(-c3nccc(N4CCOC(c5cn[nH]c5)C4)n3)cnc2cn1 (centres unmarked) [IV-20, 4-(2-(6-Methylimidazo[1,2-a]pyrazin-3-yl)pyrimidin-4-yl)-2-(1H-pyrazol-4-yl)morpholine]
- IC50 [1, 4]: 500 to 5000 nM
- Ki (GCN2 kinase; [5]): 10 to 100 nM

Compound: CS(=O)(=O)NCC1CN(c2cc(-c3cnc4ccc(C(F)F)nn34)ncn2)CCC1(F)F (single isomer, unassigned) [II-1, N-((1-(6-(6-(Difluoromethyl)imidazo[1,2-b]pyridazin-3-yl)pyrimidin-4-yl)-4,4-difluoropiperidin-3-yl)methyl)methanesulfonamide]
- IC50 [1, 2]: 500 to 5000 nM
- Ki (GCN2 kinase; [3]): 10 to 1000 nM

Compound: CS(=O)(=O)N1CCC2C(C1)OCCN2c1cc(-c2cnc3ccc(C(F)F)nn23)ncn1 (centres unmarked) [II-369, 1-(6-(6-(Difluoromethyl)imidazo[1,2-b]pyridazin-3-yl)pyrimidin-4-yl)-6-(methylsulfonyl)octahydro-1H-pyrido[3,4-b][1,4]oxazine]
- IC50 [1, 2]: > 5000 nM
- Ki (GCN2 kinase; [3]): 10 to 1000 nM

Compound: O=C1CCN(c2cc(-c3cnn4ccc(C(F)(F)F)nc34)ncn2)CCN1 [III-3, 1-[6-[5-(Trifluoromethyl)pyrazolo[1,5-a]pyrimidin-3-yl]pyrimidin-4-yl]-1,4-diazepan-5-one]
- IC50 ([1]; compounds of Formula III, U2OS cells, 10 μM borrelidin, 1 h, read-out: GCN2 Biomarker (IC50)): > 5000 nM
- Ki (GCN2 kinase; compounds of Formula III, 4 nM GCN2 kinase): 10 to 1000 nM

Compound: FC(F)(F)c1cn2c(-c3nccc(N4CCCC(c5cn[nH]c5Cl)C4)n3)cnc2cn1 (centres unmarked) [IV-601, 3-(4-(3-(5-Chloro-1H-pyrazol-4-yl)piperidin-1-yl)pyrimidin-2-yl)-6-(trifluoromethyl)imidazo[1,2-a]pyrazine]
- IC50 [1, 4]: < 500 nM
- Ki (GCN2 kinase; [5]): < 10 nM

Compound: NS(=O)(=O)CCC1CCCCN1c1cc(-c2cnc3ccc(C(F)F)nn23)ncn1 (centres unmarked) [II-283, 2-(1-(6-(6-(Difluoromethyl)imidazo[1,2-b]pyridazin-3-yl)pyrimidin-4-yl)piperidin-2-yl)ethane-1-sulfonamide]
- IC50 [1, 2]: > 5000 nM
- Ki (GCN2 kinase; [3]): 10 to 1000 nM

Source: US10988477B2 (Merck Patent GmbH, priority 2018, dated 2021)
